Experimental data taken from publication PMC5865651, “Novel inhibitor candidates of TRPV2 prevent damage of dystrophic myocytes and ameliorate against dilated cardiomyopathy in a hamster model” (Oncotarget, 2018).
Like-named read-outs stand apart in the source and are kept apart here.

Legend:
hTRPC1 = target: T1, hTRPC1 (Homo sapiens, UniProt P48995); assay: Store-operated Ca2+ entry after thapsigargin in hTRPC1-transfected HEK293 cells; format: cell-based
T1 construct: expressed in transfected cells; host or cells: HEK293 cells
Protocol: (§1) Figure 4 Effects of inhibitor compounds on the Ca^2+ response of cells expressing hTRPV1, hTRPV2, or hTRPC1 (A) Effect of compounds on CaCl2 (5 mM)-induced peak fluorescence ratio in non-transfected (nt) or hTRPV2-transfected CHO cells. The extracellular Ca^2+-dependent increase in the ratio of fura-2 fluorescence intensity at 340/380 nm (ΔR, 2 min after addition of chemicals) was plotted as ΔR/R0 after normalising to the initial fluorescence ratio (R0). […] Solid bar, no inhibitor. (B) Effect of compounds on 2-APB (1 mM)/high extracellular CaCl2-induced peak fluorescence ratio in nt or hTRPV1-transfected HEK293 cells. […] (C) Effect of compounds on store-operated Ca^2+ entry in nt or hTRPC1-transfected HEK293 cells. Cells were treated with the endoplasmic reticulum Ca^2+ pump inhibitor thapsigargin and exposed to CaCl2 and the indicated compounds. ΔR was measured 2 min after the addition of CaCl2. […] Data are shown as mean ± SD (n = 5).
[Ca^2+]i was measured by a ratiometric fluorescence method as previously described. […] Fura-2-AM fluorescence was measured using an Aquacosmos fluorescence image processor (Hamamatsu Photonics, Hamamatsu, Japan). The time-course data are presented as the ratio of fluorescence at an excitation wavelength of 340 nm to that at 380 nm. The increase in the fluorescence ratio induced by the TRPV2 agonist 2-APB or high extracellular Ca^2+ (ΔR) was normalized to the initial ratio (R0) before stimulation. The fluorescence relative ratio (ΔR/R0) was plotted as the summary data in the fluorescence imaging analysis.

hTRPV1 = target: T2, hTRPV1 (Homo sapiens, UniProt Q8NER1); assay: 2-APB/high extracellular CaCl2-induced increase in [Ca2+]i in hTRPV1-transfected HEK293 cells; format: cell-based
T2 construct: expressed in transfected cells; host or cells: HEK293 cells
Protocol: as §1
[Ca^2+]i was measured by a ratiometric fluorescence method as previously described. Briefly, HEK293 cells were loaded with 4 μM fura-2-AM for 30 min at 37° C and maintained in balanced salt solution (BSS) (146 mM NaCl, 4 mM KCl, 2 mM MgCl2, 0.5 mM CaCl2, 10 mM glucose, 0.1% bovine serum albumin, and 10 mM HEPES/Tris, pH 7.4). Fura-2-AM fluorescence was measured using an Aquacosmos fluorescence image processor (Hamamatsu Photonics, Hamamatsu, Japan). The time-course data are presented as the ratio of fluorescence at an excitation wavelength of 340 nm to that at 380 nm. The increase in the fluorescence ratio induced by the TRPV2 agonist 2-APB or high extracellular Ca^2+ (ΔR) was normalized to the initial ratio (R0) before stimulation. The fluorescence relative ratio (ΔR/R0) was plotted as the summary data in the fluorescence imaging analysis.

[1] = system: cardiomyopathic J2N-k hamsters; assay: Cardiomyopathy in J2N-k hamsters in vivo (echocardiography, serum cTN-I, Masson's trichrome fibrosis); parameters: species or system hamster; conditions: 3 weeks
Protocol: Male δ-SG-deficient cardiomyopathic J2N-k and age-matched wild-type J2N-n hamsters (9 weeks old) were purchased from Japan SLC, Inc. (Shizuoka, Japan). Tranilast was ingested mixed with feed (300 mg/kg/day) as described previously, whereas other drugs (Figure 1) were administered orally in the drinking water at doses of 30 mg/kg (except lumin) per day for 3 weeks. In case of lumin, we first performed dose-dependent experiment at dose of 1,10 and100 mg/kg per day for 3 weeks, in order to determine the effective dose. […] After drug treatment, serum cardiac troponin (cTN)-I was measured and echocardiography analysis was performed. Histochemistry of cardiac muscles was performed as previously described. All animal experiments were performed according to the Guidelines for Animal Experimentation of the National Cerebral and Cardiovascular Center Research Institute.
Ventricles were fixed in phosphate-buffered saline containing 10% formalin and embedded in paraffin. Serial sections were cut at a thickness of 5 μm and stained with Masson's trichrome stain for morphological analysis. Sections were viewed under a BX41 light microscope (Olympus, Tokyo, Japan). Images were acquired with an FX380 digital camera (Olympus) and analysed using an FLVFS-LS imaging system (Flovel, Tokyo, Japan).
Fibrosis was assessed by measuring Masson's trichrome-positive areas. Briefly, colour images were converted to binary form by setting the threshold value so as to detect only blue-stained fibrotic areas, which were summed and reported as a percentage of the total.
Cardiac function was evaluated by echocardiography using a Sonos5500 ultrasound system (Hewlett-Packard, Palo Alto, CA, USA) with a 12-MHz transducer and M-mode imaging. The animals were sedated with tribromoethanol (350 mg/kg by intraperitoneal injection) during the process.
Creatine phosphokinase (CK) activity in the medium was determined using an in vitro colorimetric assay kit (CK Test Kit; Wako Pure Chemical Industries, Ltd., Osaka, Japan) according to the manufacturer's protocol The cTN-I level in the serum was measured, while quantitative immunoblotting and immunocytochemistry were performed as previously described. Protein concentration was measured using the bicinchoninic acid assay (Pierce Chemical Co., Rockford, IL, USA) with bovine serum albumin as the standard. All histochemical and physiological analyses were performed by investigators blinded to the drug treatments. Unless otherwise stated, results are presented as the mean ± SD of at least 5 determinations. The unpaired Student's t-test and one-way ANOVA followed by Dunnett's test were used to analyse the data. Values of P < 0.05 (indicated as asterisks in the figures) were considered statistically significant. All cellular measurements were repeated at least 5 times. Representative data are shown.

[2] = hTRPV1-transfected HEK293 cells, 2-APB 1 mM/high CaCl2, compound 15 μM
[3] = hTRPC1-transfected HEK293 cells, thapsigargin, compound 15 μM
[4] = 30 mg/kg per day orally in drinking water
[5] = unpublished observation, concentration not given

T1 sequence (P48995 whole entry): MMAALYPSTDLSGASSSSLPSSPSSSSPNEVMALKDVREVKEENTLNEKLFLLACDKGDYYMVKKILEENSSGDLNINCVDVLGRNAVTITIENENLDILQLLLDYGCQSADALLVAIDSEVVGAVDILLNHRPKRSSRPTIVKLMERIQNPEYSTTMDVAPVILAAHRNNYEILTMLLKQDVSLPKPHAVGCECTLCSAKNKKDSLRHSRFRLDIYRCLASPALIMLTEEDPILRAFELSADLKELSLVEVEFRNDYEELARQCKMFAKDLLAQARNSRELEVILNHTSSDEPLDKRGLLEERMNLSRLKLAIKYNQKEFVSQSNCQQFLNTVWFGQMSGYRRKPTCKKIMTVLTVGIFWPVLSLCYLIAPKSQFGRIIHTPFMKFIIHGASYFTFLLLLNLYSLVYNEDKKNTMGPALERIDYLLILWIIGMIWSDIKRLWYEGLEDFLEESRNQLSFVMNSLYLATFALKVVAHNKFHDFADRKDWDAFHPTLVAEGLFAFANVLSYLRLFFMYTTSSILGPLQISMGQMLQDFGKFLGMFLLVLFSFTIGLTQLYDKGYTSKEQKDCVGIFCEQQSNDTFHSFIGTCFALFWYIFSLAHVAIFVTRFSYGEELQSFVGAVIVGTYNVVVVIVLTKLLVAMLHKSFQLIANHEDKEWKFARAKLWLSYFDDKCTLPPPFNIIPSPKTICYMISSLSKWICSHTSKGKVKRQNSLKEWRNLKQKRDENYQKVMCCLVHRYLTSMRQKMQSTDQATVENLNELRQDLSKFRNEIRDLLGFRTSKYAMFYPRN
T2 sequence (Q8NER1 whole entry): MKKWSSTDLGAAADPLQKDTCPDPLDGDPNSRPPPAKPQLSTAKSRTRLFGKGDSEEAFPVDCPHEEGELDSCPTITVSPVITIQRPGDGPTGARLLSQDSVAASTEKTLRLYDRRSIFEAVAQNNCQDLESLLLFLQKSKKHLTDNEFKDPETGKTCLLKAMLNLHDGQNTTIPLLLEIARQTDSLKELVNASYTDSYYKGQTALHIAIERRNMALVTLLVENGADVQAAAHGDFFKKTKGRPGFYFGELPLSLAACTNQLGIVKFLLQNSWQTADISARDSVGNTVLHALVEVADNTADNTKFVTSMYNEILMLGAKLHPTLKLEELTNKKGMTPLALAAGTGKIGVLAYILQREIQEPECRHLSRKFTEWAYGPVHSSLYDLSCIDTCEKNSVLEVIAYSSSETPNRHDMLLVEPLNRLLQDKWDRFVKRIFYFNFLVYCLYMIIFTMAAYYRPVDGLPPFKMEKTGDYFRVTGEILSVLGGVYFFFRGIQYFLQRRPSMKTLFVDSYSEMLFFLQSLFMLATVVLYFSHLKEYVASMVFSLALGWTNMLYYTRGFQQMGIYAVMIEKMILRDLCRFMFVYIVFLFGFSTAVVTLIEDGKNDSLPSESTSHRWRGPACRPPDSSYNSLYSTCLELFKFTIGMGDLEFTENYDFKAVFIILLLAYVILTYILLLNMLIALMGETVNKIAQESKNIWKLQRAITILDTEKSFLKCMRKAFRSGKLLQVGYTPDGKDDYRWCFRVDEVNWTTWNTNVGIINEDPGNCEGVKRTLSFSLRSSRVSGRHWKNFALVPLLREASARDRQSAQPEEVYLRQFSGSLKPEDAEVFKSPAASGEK

Structure (SMILES)	effect on store-operated increase in [Ca2+]i (hTRPC1)	increase in [Ca2+]i via TRPV1 (hTRPV1; [2])	effect on store-operated increase in [Ca2+]i (hTRPC1; [3])	effect on fibrosis (Masson's trichrome) [1, 4]	effect on fractional shortening (FS) [1, 4]	effect on left ventricular end-diastolic dimension (LVDd) [1, 4]	effect on left ventricular end-systolic dimension (LVDs) [1, 4]	effect on serum level of cTN-I [1, 4]	increase in [Ca2+]i via TRPV1 (hTRPV1; [5])	increase in [Ca2+]i via TRPC1 (hTRPC1; [5])	effect on cardiac dysfunction (increased LVDs, reduced ejection fraction, decreased fractional shortening) ([1]; 10 mg/kg per day orally)	effect on fibrotic area ([1]; 10 mg/kg per day orally)	effect on the decrease in wall thickness ([1]; 10 mg/kg per day orally)
NCCOB(c1ccccc1)c1ccccc1 [2-APB, 2-aminoethoxydiphenylborate]	inhibited	–	–	–	–	–	–	–	–	–	–	–	–
COc1cc(/C=C(\C#N)C(=O)Nc2ccccc2C(=O)O)cc(Cl)c1OC [A3, 2-[(2E)-3-(3-Chloro-4,5-dimethoxyphenyl)-2-cyanoprop-2-enoylamino]benzoic acid]	–	unaffected	neither A3, A48, A63, nor B6 had any effect	prevented fibrosis	prevented	small effect	prevented the increase	reduced	–	–	–	–	–
COc1cccc(OCCn2cc(/C=N/n3cnnc3)c3ccccc32)c1 [B6, 1-{2-[3-((1E)-2-(1,2,4-triazol-4-yl)-2-azavinyl)indolyl]ethoxy}-3-methoxybenzene]	–	unaffected	neither A3, A48, A63, nor B6 had any effect	–	prevented	small effect	prevented the increase	reduced	–	–	–	–	–
CCN1C=CC(=CC=C(C=Cc2cc[n+](CC)c3ccccc23)c2cc[n+](CC)c3ccccc23)c2ccccc21.[I-].[I-] [lumin, 4,4′-[3-[2-[1-ethyl-4(1H)-quinolinylidene]ethylidene]-1-propene-1,3-diyl]bis(1-ethylquinolinium) diiodide]	–	–	–	–	–	–	–	–	did not affect	did not affect	prevented	reduced	partially prevented
